Measured values published in paper PMC9414684, “Quantitative Structure–Neurotoxicity Assessment and In Vitro Evaluation of Neuroprotective and MAO-B Inhibitory Activities of Series N′-substituted 3-(1,3,7-trimethyl-xanthin-8-ylthio)propanehydrazides” (Molecules, 2022).

What was measured:
[1] = test system: isolated rat synaptosomes; test: 6-OHDA-induced oxidative stress model, GSH level; type: cell-based; conditions: for GSH levels stored (protected): 6-OHDA-induced oxidative stress, against the toxic agent
Protocol: The level of reduced glutathione was determined by measuring the non-protein SH-groups after precipitation of the proteins with trichloroacetic acid. After the incubation, synaptosomes were centrifuged at 400× g for 3 min. These diment were treated with 5% trichloroacetic acid and left for 10 min on ice. Samples were centrifuged at 8000× g for 10 min (2 °C). The supernatant was removed to determine the level of GSH and was stored at −20 °C. Immediately before the measurement, the samples were neutralized with 5 N NaOH.
The presence of thiols in the supernatant was determined using Ellman’s reagent. The resulting yellow color was measured spectrophotometrically at λ = 412 nm.
This in vitro model resembles the neurodegenerative processes occurring in PD. Dopamine metabolism and oxidation lead to the formation of ROS and reactive quinones. They induce dopamine neurotoxicity and neurodegeneration. The synaptosomes were incubated with 150 μmol 6-OHDA for 1 h.

[2] = test system: isolated rat brain synaptosomes; test: Synaptosomal viability (MTT test), compounds applied alone; type: cell-based; conditions: 100 µmol; for relative synaptosomal vitality (RV): synaptosomal viability relative to caffeine (1) = 1; for decrease of synaptosomal viability: applied alone, against the control (untreated synaptosomes); for neurotoxicity on synaptosomes in words: single application, compared to the control and to caffeine
Protocol: (§1) The synaptosomes and mitochondria were prepared as explained in [54, 55] with the help of a colloidal silicon solution (Percoll): 1. Preparation of 90% stock solution of Percoll. 2. Preparation of Percoll solutions with two concentrations, 16% and 10%. An amount of 4 ml of Percoll 16% and 10% were added in the tubes. 3. An amount of 90% Percoll (7.5% Percoll) was added to the sediment from the last centrifugation. The tubes were centrifuged for 20 min at 15,000× g at 4 °C, resulting in the formation of three layers. The lower layer contained mitochondria, the upper layer, lipids and the middle layer (between 16% and 10% Percoll), synaptosomes. The middle and the lower layers of each tube were harvested and buffer B with glucose was added. The mixture was centrifuged at 10,000× g for 20 min at 4 °C. After centrifugation, the sediment with the synaptosomes and mitochondria was mixed with buffer B with glucose.
After the incubation, the synaptosomes were centrifuged three times at 15,000× g for 1 min. An MTT test was performed to determine synaptosomal vitality by the method described in the literature. […]

[3] = test system: isolated rat brain mitochondria; test: MDA production in isolated brain mitochondria, compounds applied alone; type: cell-based; conditions: 100 µmol, against the control (untreated mitochondria)
Protocol: The synaptosomes and mitochondria were prepared as explained in [54, 55] with the help of a colloidal silicon solution (Percoll): 1. […] An amount of 4 ml of Percoll 16% and 10% were added in the tubes. 3. An amount of 90% Percoll (7.5% Percoll) was added to the sediment from the last centrifugation. The tubes were centrifuged for 20 min at 15,000× g at 4 °C, resulting in the formation of three layers. The lower layer contained mitochondria, the upper layer, lipids and the middle layer (between 16% and 10% Percoll), synaptosomes. The middle and the lower layers of each tube were harvested and buffer B with glucose was added. The mixture was centrifuged at 10,000× g for 20 min at 4 °C. After centrifugation, the sediment with the synaptosomes and mitochondria was mixed with buffer B with glucose. […] After that, the tubes were maintained in a bath filled with boiling water. Finally, the tubes were transferred to an ice bath and butanol (0.4 mL) was poured into each tube. In the next stage, centrifugation of the tubes was carried out at 3500× g for 10 min. Following that, assessment of the total quantity of MDA shaped in each sample was carried out using a spectrophotometer (UV-Vis Split) to measure the supernatant’s absorbance at 532 nm. The mitochondria were incubated with 75 µmol t-BuOOH [59]. The quantity of the lipid peroxidation product MDA was assessed, using the method, described in the literature.

[4] = test system: isolated rat synaptosomes; test: 6-OHDA-induced oxidative stress model, synaptosomal vitality; type: cell-based; conditions: against the toxic agent
Protocol: After the incubation, the synaptosomes were centrifuged three times at 15,000× g for 1 min. An MTT test was performed to determine synaptosomal vitality by the method described in the literature [56]. […] The synaptosomes were incubated with 150 μmol 6-OHDA for 1 h [58].

[5] = biological target: T1, human recombinant MAO-B enzyme (hMAOB) (Homo sapiens, UniProt P27338); test: Monoamine oxidase B activity, fluorimetric Amplex Ultra Red assay, tyramine substrate; type: biochemical; conditions: 1 µmol, applied alone, against the control (pure hMAOB)
T1 sequence (P27338 1-520): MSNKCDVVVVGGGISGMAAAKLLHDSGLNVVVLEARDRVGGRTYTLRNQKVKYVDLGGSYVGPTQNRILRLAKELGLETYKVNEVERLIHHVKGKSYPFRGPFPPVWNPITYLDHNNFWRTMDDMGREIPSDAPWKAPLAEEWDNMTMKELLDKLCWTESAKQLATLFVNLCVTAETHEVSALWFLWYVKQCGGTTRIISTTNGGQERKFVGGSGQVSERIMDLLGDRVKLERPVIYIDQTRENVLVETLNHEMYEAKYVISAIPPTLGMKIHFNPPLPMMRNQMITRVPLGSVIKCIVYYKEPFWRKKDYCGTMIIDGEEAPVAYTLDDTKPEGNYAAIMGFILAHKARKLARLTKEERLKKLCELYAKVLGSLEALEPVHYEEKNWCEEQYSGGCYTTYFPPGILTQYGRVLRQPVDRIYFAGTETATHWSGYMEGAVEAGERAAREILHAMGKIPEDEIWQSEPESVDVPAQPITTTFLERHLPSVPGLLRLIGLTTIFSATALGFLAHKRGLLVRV
Protocol: Monoamine oxidase activity assay of recombinant human MAO-B was performed using a fluorimetric method by Amplex Ultra Redreagent [63]. Tyramine hydrochloride was used as substrate.
The MAO-B activity was normalized as a percentage of the untreated control set as 100% and the results were expressed as mean values and standard deviation (±SD). Statistical analysis was performed by one-way analysis of variance (ANOVA) with a post hoc multiple comparisons procedure (Dunnet’s test) to assess the statistical differences in case of normal distribution. Values of p < 0.05, p < 0.01 and p < 0.001 were considered as statistically significant.

[6] = test system: isolated rat brain microsomes; test: MDA production in isolated brain microsomes, compounds applied alone; type: cell-based; conditions: 100 µmol; for pro-oxidant effect (MDA production): applied alone, compared to the control (untreated microsomes); for neurotoxicity on microsomes in words: tested alone, compared to the control and to caffeine
Protocol: The brain microsomes were prepared according to the procedure described in [61]. […] The homogenate was centrifugated at 17,000× g for 30 min. The pellet was suspended in 4 vol of the homogenization buffer and centrifuged at 17,000× g for a further period of 30 min. The supernatants from both centrifugations were combined (post-mitochondrial supernatant) and centrifuged at 100,000× g for 1 h. The pellet was resuspended in the above buffer and centrifuged at 100,000× g for 1 h. The resulting pellet was frozen in the buffer with glycerol.
The quantity of the lipid peroxidation product MDA was assessed, using the method, described in the literature.
Analysis of quantitative structure–neurotoxicity relationships employed the data from in vitro assessments of synaptosome viability (%) and MDA production in microsomal fractions (nmol/0.1 mg protein) as indicators for the neurotoxicity of compounds.

[7] = test system: isolated rat microsomes; test: Fe2+/AA-induced lipid peroxidation model, MDA production; type: cell-based; conditions: 100 µmol, compared to the toxic agent
Protocol: The microsomes were pre-incubated with the analyzed compounds for 15 min at 37 °C. The reaction was started with a solution of iron sulphate 20 μmol and ascorbic acid 0.5 mmol. […] After starting the reaction, the LPO and the MDA quantity was assessed [62].
The quantity of the lipid peroxidation product MDA was assessed, using the method, described in the literature [62].

[8] = test system: isolated rat brain mitochondria; test: GSH level in isolated brain mitochondria, compounds applied alone; type: cell-based; conditions: 100 µmol, against the control (untreated mitochondria)
Protocol: as §1
The DNTB spectrophotometric technique explained in [60] was applied for GSH content measurement in brain mitochondria. Then, 0.04% DTNB was mixed with the mitochondrial suspensions (0.5 mg protein/mL) in 0.1 mol/L of phosphate buffers (pH 7.4). The development of the yellow color was read at 412 nm (spectrophotometer UV-Vis Split).

[9] = biological target: MAO-B; set-up: method as in PMID 19342233; conditions: MAO-B inhibitor activity; cited from earlier work

SMILES: NCCc1cc(O)c(O)cc1O [6-OHDA, 6-hydroxydopamine, reference compound]
- decrease of GSH levels by the toxic agent ([1]; 6-OHDA applied alone (150 μmol, 1 h), against the control (untreated synaptosomes)): 50%

SMILES: Cn1c(=O)c2c(nc(SCCC(=O)NN=Cc3ccccc3)n2C)n(C)c1=O [6a]
- relative synaptosomal vitality (RV) [2]: 0.743

SMILES: Cn1c(=O)c2c(nc(SCCC(=O)NN=Cc3ccc([N+](=O)[O-])cc3)n2C)n(C)c1=O [6b]
- relative synaptosomal vitality (RV) [2]: 0.703

SMILES: Cn1c(=O)c2c(nc(SCCC(=O)NN=Cc3c(Cl)cccc3Cl)n2C)n(C)c1=O [6c]
- relative synaptosomal vitality (RV) [2]: 0.689

SMILES: Cn1c(=O)c2c(nc(SCCC(=O)NN=Cc3cccc(Cl)c3)n2C)n(C)c1=O [6d]
- relative synaptosomal vitality (RV) [2]: 0.730

SMILES: Cn1c(=O)c2c(nc(SCCC(=O)NN=Cc3ccc(Br)cc3)n2C)n(C)c1=O [6e]
- relative synaptosomal vitality (RV) [2]: 0.743

SMILES: Cn1c(=O)c2c(nc(SCCC(=O)NN=Cc3ccc(C(F)(F)F)cc3)n2C)n(C)c1=O [6f]
- relative synaptosomal vitality (RV) [2]: 0.757

SMILES: COc1ccc(C=NNC(=O)CCSc2nc3c(c(=O)n(C)c(=O)n3C)n2C)cc1OC [6g]
- relative synaptosomal vitality (RV) [2]: 0.716

SMILES: COc1cc(C=NNC(=O)CCSc2nc3c(c(=O)n(C)c(=O)n3C)n2C)cc(OC)c1OC [6h]
- relative synaptosomal vitality (RV) [2]: 0.703

SMILES: COc1cc(C=NNC(=O)CCSc2nc3c(c(=O)n(C)c(=O)n3C)n2C)cc(OC)c1O [6i]
- relative synaptosomal vitality (RV) [2]: 0.743

SMILES: COc1cc(C=NNC(=O)CCSc2nc3c(c(=O)n(C)c(=O)n3C)n2C)ccc1O [6j]
- relative synaptosomal vitality (RV) [2]: 0.730

SMILES: COc1cccc(C=NNC(=O)CCSc2nc3c(c(=O)n(C)c(=O)n3C)n2C)c1OC [6k, N′-(2,3-dimethoxybenzylidene)-3-(1,3,7-trimethyl-2,6-dioxo-2,3,6,7-tetrahydro-1H-purin-8-ylthio)propanehydrazide]
- change of MDA production [3]: did not change statistically significantly
- protection of synaptosomal vitality [4]: 20%
- inhibition of hMAOB activity [5]: 25%
- GSH levels stored (protected) [1]: 20%
- pro-oxidant effect (MDA production) [6]: did not show any statistically significant pro-oxidant effect
- neurotoxicity on microsomes in words [6]: lowest neurotoxicity
- decrease of synaptosomal viability [2]: 29%
- neurotoxicity on synaptosomes in words [2]: lowest neurotoxicity
- relative synaptosomal vitality (RV) [2]: 0.959
- reduction of MDA production [7]: 38%

SMILES: Cn1c(=O)c2c(nc(SCCC(=O)NN=Cc3ccccc3O)n2C)n(C)c1=O [6l, N′-(2-hydroxybenzylidene)-3-(1,3,7-trimethyl-2,6-dioxo-2,3,6,7-tetrahydro-1H-purin-8-ylthio)propanehydrazide]
- neurotoxic effect on GSH level [8]: did not show any statistically significant neurotoxic effect
- change of MDA production [3]: did not change statistically significantly
- protection of synaptosomal vitality [4]: 36%
- inhibition of hMAOB activity [5]: 30%
- GSH levels stored (protected) [1]: 42%
- pro-oxidant effect (MDA production) [6]: did not show any statistically significant pro-oxidant effect
- neurotoxicity on microsomes in words [6]: lowest neurotoxicity
- decrease of synaptosomal viability [2]: 28%
- neurotoxicity on synaptosomes in words [2]: lowest neurotoxicity
- relative synaptosomal vitality (RV) [2]: 0.973
- reduction of MDA production [7]: 50%

SMILES: Cc1cc(C)c(C=NNC(=O)CCSc2nc3c(c(=O)n(C)c(=O)n3C)n2C)c(C)c1 [6m]
- relative synaptosomal vitality (RV) [2]: 0.716

SMILES: COc1cccc(C=NNC(=O)CCSc2nc3c(c(=O)n(C)c(=O)n3C)n2C)c1O [6n]
- relative synaptosomal vitality (RV) [2]: 0.689

SMILES: Cn1c(=O)c2c(nc(SCCC(=O)NN=Cc3cccc([N+](=O)[O-])c3)n2C)n(C)c1=O [6o]
- relative synaptosomal vitality (RV) [2]: 0.757

SMILES: Cn1c(=O)c2c(ncn2C)n(C)c1=O [compound 1, caffeine, reference compound]
- change of MDA production [3]: did not change statistically significantly
- Ki [9]: 3.6 mM
- GSH levels stored (protected) [1]: 30%
- pro-oxidant effect (MDA production) [6]: did not show any statistically significant pro-oxidant effect
- neurotoxicity on microsomes in words [6]: lowest neurotoxicity
- decrease of synaptosomal viability [2]: 26%
- neurotoxicity on synaptosomes in words [2]: lowest neurotoxicity
